According to US8927717B1, “Thiochromeno[2,3-c]quinolin-12-one derivatives, preparation method and application thereof” (National Defense Medical Center, priority 2014, dated 2015):

Columns and labels:
Format in all cases: cell-based
SK-OV-3 = settings: SK-OV-3; five dose
NCI-H226 = system: NCI-H226
UO-31 = system: UO-31
LOX IMVI = system: LOX IMVI
MDA-MB-435 = system: MDA-MB-435
CCRF-CEM = system: CCRF-CEM
K-562 = system: K-562
KM12 = experiment: cells
OVCAR-5 = system: OVCAR-5
BT-549 = system: BT-549
OVCAR-8 = system: OVCAR-8
PC-3 = system: PC-3
786-0 = system: 786-0
60 cancer cell lines = experiment: NCI 60-cell screen, SRB, whole panel (mean, delta, range)
NCI-H522 = system: NCI-H522
HT29 = system: HT29
HOP-62 = system: HOP-62
A498 = system: A498
SK-MEL-28 = system: SK-MEL-28
[1] = Homo sapiens, NCI-H226, five dose
[2] = Non-small cell lung cancer, 10^−5 molar, 48 hours, SRB
[3] = Renal cancer, 10^−5 molar, 48 hours, SRB
[4] = Homo sapiens, LOX IMVI, five dose
[5] = Melanoma, 10^−5 molar, 48 hours, SRB
[6] = Leukemia, 10^−5 molar, 48 hours, SRB
[7] = Colon cancer, 10^−5 molar, 48 hours, SRB
[8] = Ovarian cancer, 10^−5 molar, 48 hours, SRB
[9] = Homo sapiens, NCI-H522, five dose
[10] = Homo sapiens, HT-29, HT29, five dose
[11] = Homo sapiens, HOP-62, five dose
[12] = Homo sapiens, SK-MEL-28, five dose

CN(C)CCNc1nc2ccccc2c2c(=O)c3cc(Cl)ccc3sc12 [Compound N7, 10-Chloro-6-((2-(dimethylamino)ethyl)amino)-12H-thiochromeno[2,3-c]quinolin-12-one]
TGI (SK-OV-3): 3.06 µM
GI50 (NCI-H226; [1]): 1.84 µM
LC50 (concentration giving 50% net cell kill) (NCI-H226; [1]): 24.3 µM
TGI (NCI-H226; NCI-H226, five dose): 4.38 µM
Growth percent NCI-H226 (NCI-H226; [2]): 58.08%
GI50 (UO-31; Homo sapiens, UO-31, five dose): 1.19 µM
CC50 (UO-31; Homo sapiens, UO-31, five dose, read-out: LC50 (the source's name)): 5.22 µM
Growth percent UO-31 (UO-31; [3]): 21.83%
TGI (UO-31; UO-31, five dose): 2.50 µM
GI50 (LOX IMVI; [4]): 1.68 µM
LC50 (LOX IMVI; [4]): 6.24 µM
TGI (LOX IMVI; LOX IMVI, five dose): 3.24 µM
Growth percent LOX IMVI (LOX IMVI; [5]): −84.12%
GI50 (MDA-MB-435; Homo sapiens, MDA-MB-435, five dose): 1.71 µM
CC50 (MDA-MB-435; Homo sapiens, MDA-MB-435, five dose, read-out: LC50 (the source's name)): 6.05 µM
TGI (MDA-MB-435; MDA-MB-435, five dose): 3.22 µM
Growth percent MDA-MB-435 (MDA-MB-435; [5]): −64.64%
TGI (CCRF-CEM; CCRF-CEM, five dose): 3.41 µM
GI50 (CCRF-CEM; Homo sapiens, CCRF-CEM, five dose): 1.63 µM
CC50 (CCRF-CEM; Homo sapiens, CCRF-CEM, five dose, read-out: LC50 (the source's name)): 7.15 µM
Growth percent CCRF-CEM (CCRF-CEM; [6]): −53.54%
GI50 (K-562; Homo sapiens, K562, K-562, five dose): 1.33 µM
CC50 (K-562; Homo sapiens, K562, K-562, five dose, read-out: LC50 (the source's name)): 6.74 µM
TGI (K-562; K-562, five dose): 3.00 µM
Growth percent K-562 (K-562; [6]): −58.60%
Growth percent KM12 (KM12; [7]): −77.07%
GI50 (KM12; Homo sapiens, KM12, five dose): 1.78 µM
LC50 (KM12; Homo sapiens, KM12, five dose): 6.03 µM
TGI (KM12; KM12, five dose): 3.28 µM
GI50 (OVCAR-5; Homo sapiens, OVCAR-5, five dose): 1.45 µM
CC50 (OVCAR-5; Homo sapiens, OVCAR-5, five dose, read-out: LC50 (the source's name)): 5.83 µM
TGI (OVCAR-5; OVCAR-5, five dose): 2.91 µM
Growth percent OVCAR-5 (OVCAR-5; [8]): 24.27%
TGI (BT-549; BT-549, five dose): 2.27 µM
Growth percent BT-549 (BT-549; Breast cancer, 10^−5 molar, 48 hours, SRB): 91.29%
GI50 (BT-549; Homo sapiens, BT-549, five dose): 8.91 µM
CC50 (BT-549; Homo sapiens, BT-549, five dose, read-out: LC50 (the source's name)): 5.33 µM
GI50 (OVCAR-8; Homo sapiens, OVCAR-8, five dose): 1.64 µM
CC50 (OVCAR-8; Homo sapiens, OVCAR-8, five dose, read-out: LC50 (the source's name)): 6.06 µM
TGI (OVCAR-8; OVCAR-8, five dose): 3.15 µM
Growth percent OVCAR-8 (OVCAR-8; [8]): 1.22%
GI50 (PC-3; Homo sapiens, PC-3, five dose): 1.47 µM
CC50 (PC-3; Homo sapiens, PC-3, five dose, read-out: LC50 (the source's name)): 5.74 µM
TGI (PC-3; PC-3, five dose): 2.90 µM
Growth percent PC-3 (PC-3; Prostate cancer, 10^−5 molar, 48 hours, SRB): 33.32%
TGI (786-0; 786-0, five dose): 3.45 µM
GI50 (786-0; Homo sapiens, 786-0, five dose): 1.84 µM
CC50 (786-0; Homo sapiens, 786-0, five dose, read-out: LC50 (the source's name)): 6.46 µM
Growth percent 786-0 (786-0; [3]): 43.11%
GI50 (60 cancer cell lines; 60 cell, mean over panel, five dose): 1.66 µM
CC50 (60 cancer cell lines; 60 cell, mean over panel, five dose, read-out: LC50, Mean): 6.92 µM
Growth percent, Delta (60 cancer cell lines; delta over the cell panel, 10^−5 molar, 48 hours, SRB): 85.53%
TGI, Mean (60 cancer cell lines; mean over panel, five dose): 3.39 µM
Growth percent, Mean (60 cancer cell lines; mean over the cell panel, 10^−5 molar, 48 hours, SRB): −11.06%
Growth percent, Range (60 cancer cell lines; range over the cell panel, 10^−5 molar, 48 hours, SRB): 187.88%
GI50 (NCI-H522; [9]): 1.59 µM
LC50 (concentration causing 50% net cell kill) (NCI-H522; [9]): 5.9 µM
TGI (NCI-H522; NCI-H522, five dose): 3.07 µM
Growth percent NCI-H522 (NCI-H522; [2]): −8.99%
Growth percent HT29 (HT29; [7]): −84.24%
TGI (HT29; HT29, five dose): 3.36 µM
GI50 (HT29; [10]): 1.65 µM
LC50 (concentration killing 50% of cells) (HT29; [10]): 6.88 µM
TGI (HOP-62; HOP-62, five dose): 2.92 µM
GI50 (HOP-62; [11]): 1.54 µM
LC50 (lethal concentration 50) (HOP-62; [11]): 5.56 µM
Growth percent HOP-62 (HOP-62; [2]): 56.42%
TGI (A498; A498, five dose): 9.44 µM
GI50 (A498; Homo sapiens, A498, five dose): 2.7 µM
CC50 (A498; Homo sapiens, A498, five dose, read-out: LC50 (the source's name)): 3.52 µM
Growth percent A498 (A498; [3]): 43.17%
GI50 (SK-MEL-28; [12]): 1.81 µM
LC50 (SK-MEL-28; [12]): 5.89 µM
Growth percent SK-MEL-28 (SK-MEL-28; [5]): −76.79%
TGI (SK-MEL-28; SK-MEL-28, five dose): 3.27 µM
